Measured values published in patent US9745341B2, “Tubulysins and processes for preparing” (priority 2007, dated 2017).

Tested on: folate receptor-positive KB cells
Assay: In vitro concentration-dependent cytotoxic activity (3H-thymidine incorporation)
Type: cell-based
Settings: Homo sapiens, KB, read-out: Cytotoxicity IC50 (nM)
Experimental: The compounds described herein are evaluated using an in vitro cytotoxicity assay that predicts the ability of the drug to inhibit the growth of folate receptor-positive KB cells. The KB cells are exposed for up to 7 h at 37° C. over a range of concentrations of folate-drug conjugate in the absence or presence of at least a 100-fold excess of folic acid. The cells are then rinsed once with fresh culture medium and incubated in fresh culture medium for 72 hours at 37° C. Cell viability is assessed using a ^3H-thymidine incorporation assay.
Cells were heavily seeded in 24-well Falcon plates and allowed to form nearly confluent monolayers overnight. Thirty minutes prior to the addition of test article, spent medium was aspirated from all wells and replaced with fresh folate-free RPMI (FFRPMI). Note, designated wells received media containing 100 μM folic acid; and, cells within the latter wells were used to determine the targeting specificity, since cytotoxic activity produced in the presence of excess folic acid (enables competition for FR binding) would signify the portion of the total activity that was unrelated to FR-specific delivery. Following one rinse with 1 mL of fresh FFRPMI containing 10% heat-inactivated fetal calf serum, each well received 1 mL of media containing increasing concentrations of test article (4 wells per sample) in the presence or absence of 100 μM free folic acid (a binding site competitor). Treated cells were pulsed for 2 h at 37° C., rinsed 4 times with 0.5 mL of media, and then chased in 1 mL of fresh media up to 70 h. Spent media was aspirated from all wells and replaced with fresh media containing 5 μCi/mL ^3H-thymidine. Following a further 2 h 37° C. incubation, cells were washed 3 times with 0.5 mL of PBS and then treated with 0.5 mL of ice-cold 5% trichloroacetic acid per well. After 15 min, the trichloroacetic acid was aspirated and the cell material solubilized by the addition of 0.5 mL of 0.25 N sodium hydroxide for 15 min. Four hundred and fifty μL of each solubilized sample were transferred to scintillation vials containing 3 mL of Ecolume scintillation cocktail and then counted in a liquid scintillation counter. Final results are expressed as the percentage of ^3H-thymidine incorporation relative to untreated controls.
As shown in the following table, dose-dependent cytotoxicity is measurable, and in most cases, the IC50 values (concentration of drug conjugate required to reduce ^3H-thymidine incorporation into newly synthesized DNA by 50%) are in the low nanomolar range.

Compound	IC50
CCC(C)[C@H](NC(=O)[C@H]1CCCCN1C)C(=O)N(COC)[C@H](C[C@@H](OC(C)=O)c1nc(C(=O)N[C@@H](Cc2ccc(O)cc2)C[C@H](C)C(=O)O)cs1)C(C)C (stereo partly drawn) [EC0313, Methoxy Tubulysin]	9 nM
CCC(C)[C@H](NC(=O)[C@H]1CCCCN1C)C(=O)N(COCCO)[C@H](C[C@@H](OC(C)=O)c1nc(C(=O)N[C@@H](Cc2ccc(O)cc2)C[C@H](C)C(=O)O)cs1)C(C)C (stereo partly drawn) [EC0346, 2-Hydroxyethoxy Tubulysin]	18 nM
CCC(C)[C@H](NC(=O)[C@H]1CCCCN1C)C(=O)N(COCCC(C)C)[C@H](C[C@@H](OC(C)=O)c1nc(C(=O)N[C@@H](Cc2ccc(O)cc2)C[C@H](C)C(=O)O)cs1)C(C)C (stereo partly drawn) [EC0356]	12 nM
CCC(C)[C@H](NC(=O)[C@H]1CCCCN1C)C(=O)N(CSCCS)[C@H](C[C@@H](OC(C)=O)c1nc(C(=O)N[C@@H](Cc2ccc(O)cc2)C[C@H](C)C(=O)O)cs1)C(C)C (stereo partly drawn) [EC0374, 2-Mercaptoethylthio Tubulysin]	24 nM
CCC(C)[C@H](NC(=O)[C@H]1CCCCN1C)C(=O)N(CO)[C@H](C[C@@H](OC(C)=O)c1nc(C(=O)N[C@@H](Cc2ccc(O)cc2)C[C@H](C)C(=O)O)cs1)C(C)C (stereo partly drawn) [EC0386]	42 nM
C=CCCN(C(=O)[C@@H](NC(=O)[C@H]1CCCCN1C)C(C)CC)[C@H](C[C@@H](OC(C)=O)c1nc(C(=O)N[C@@H](Cc2ccc(O)cc2)C[C@H](C)C(=O)O)cs1)C(C)C (stereo partly drawn) [EC0550, N-Homoallyl Tubulysin]	2 nM
CCCSCN(C(=O)[C@@H](NC(=O)[C@H]1CCCCN1C)C(C)CC)[C@H](C[C@@H](OC(C)=O)c1nc(C(=O)N[C@@H](Cc2ccc(O)cc2)C[C@H](C)C(=O)O)cs1)C(C)C (stereo partly drawn) [EC0623]	0.48 nM

Same assay, conditions: concentration required to reduce 3H-thymidine incorporation into newly synthesized DNA by 50%; 2 h pulse at 37° C., chase up to 70 h; read-out: Cytotoxicity IC50

Compound	IC50
CC[C@H](C)[C@H](NC(=O)[C@H]1CCCCN1C)C(=O)N(COC(=O)CC(C)C)[C@H](C[C@@H](OC(C)=O)c1nc(C(=O)N[C@@H](Cc2ccc(O)cc2)C[C@H](C)C(=O)O)cs1)C(C)C [Tubulysin A, reference compound]	2 nM
Tubulysin B [reference compound]	2.6 nM
